Source: patent publication US9453021B2, “Pyrimidodiazepinone compound” (Kyowa Hakko Kirin Co., Ltd., priority 2011, dated 2016)

Each compound was assayed on Streptozotocin-induced diabetic pain model (diabetic rats) (assay: Pain relieving effect in streptozotocin-induced diabetic pain model). Settings: 1 mg/kg orally; pain threshold by von Frey filaments after 1 hour; STZ diabetic rats.
Format: in vivo, rat
Description: Streptozotocin (STZ)-administered rats are widely used as an insulin-dependent diabetes model. In this model, decreased pain thresholds in response to mechanical stimulation are observed as in diabetic neuropathy patients [British Journal of Pharmacology, 1997, Vol. 122, p. 1478-1482].
(1) Preparation of STZ-Induced Diabetes Model
A STZ solution was prepared as a 30 mg/mL solution by being dissolved in a 0.05 mol/L citric acid aqueous solution (pH 4 to 4.5). The STZ solution (30 mg/mL) was intraperitoneally administered in a 2 mL/kg volume to rats (60 mg/kg). Rats showing 250 mg/dL or higher blood glucose levels after 1 week from the STZ administration were obtained as diabetic rats.
(2) Measurement of Pain Relieving Effect
The evaluation of Pain was performed with von Frey filaments [product name: Touch Test Sensory Evaluator, Model Number Model 58011, Muromachi Kikai Co., Ltd.], and the results were calculated as pain thresholds. Specifically, the above diabetic rats were stimulated by the pressure applied to the underside of the feet with von Frey filaments of varying stimulus strengths, and the stimulus strength at which the […] withdrew their feet was determined. From the result, a 50% pain threshold (paw withdrawal threshold)(g) was calculated by using the Dixon's up and down method [Annual Review of Pharmacology and Toxicology, 1980, Vol. 20, p. 441-462].
Rats with a 50% pain threshold of less than 4 g were used for the evaluation of the test compounds. The test compounds were each suspended in a 0.5% methyl cellulose aqueous solution, and orally administered in a 5 mL/kg volume. After 1 hour, the pain threshold was measured using von Frey filaments. The pain relief rate of the test compound was calculated by using the following equation.

Row | SMILES | Relief Rate [%]
1 | CNc1ncc2c(n1)N1CCC[C@H]1CN(c1cccc3c1C(=O)C(=O)N3C)C2=O [Compound 1-146, (S)-9-Methylamino-5-(1-methylindoline-2,3-dion-4-yl)-1,2,3,3a,4,5-hexahydro-5,8,10,10b-tetraazabenzo[e]azulen-6-one, reference compound] | 6
2 | CNc1ncc2c(n1)N1CCC[C@H]1CN(c1cccc3c(=O)n(C)cnc13)C2=O [Compound 10, (S)-6-(3-Methyl-4-oxo-3,4-dihydroquinazolin-8-yl)-2-methylamino-6,7,7a,8,9,10-hexahydro-5H-pyrimido[5,4-f]pyrrolo[1,2-a][1,4]diazepin-5-one] | 91
3 | CNc1ncc2c(n1)N1CCC[C@H]1CN(c1cccn3c(=O)c(C)c(C)nc13)C2=O [Compound 8, (S)-6-(2,3-Dimethyl-4-oxo-4H-pyrido[1,2-a]pyrimidin-9-yl)-2-methylamino-6,7,7a,8,9,10-hexahydro-5H-pyrimido[5,4-f]pyrrolo[1,2-a][1,4]diazepin-5-one] | 85

Same assay, conditions: STZ-induced diabetic pain model, 1 mg/kg orally

Row | SMILES | inhibition rate (in words)
4 | CNc1ncc2c(n1)N1CCC[C@H]1CN(c1cccc3c(=O)n(C)cnc13)C2=O [Compound 10, (S)-6-(3-Methyl-4-oxo-3,4-dihydroquinazolin-8-yl)-2-methylamino-6,7,7a,8,9,10-hexahydro-5H-pyrimido[5,4-f]pyrrolo[1,2-a][1,4]diazepin-5-one] | good inhibition rate
5 | CNc1ncc2c(n1)N1CCC[C@H]1CN(c1cccn3c(=O)c(C)c(C)nc13)C2=O [Compound 8, (S)-6-(2,3-Dimethyl-4-oxo-4H-pyrido[1,2-a]pyrimidin-9-yl)-2-methylamino-6,7,7a,8,9,10-hexahydro-5H-pyrimido[5,4-f]pyrrolo[1,2-a][1,4]diazepin-5-one] | good inhibition rate

Each compound was assayed against α2δ protein (Rattus norvegicus, UniProt P54290) (assay: α2δ protein binding experiment ([3H]-gabapentin binding inhibition)). Settings: 0.1 μmol/L test compound; [3H]-gabapentin 20 nmol/L; rat cerebral cortex membrane fraction; read-out: inhibitory activity.
Sequence of α2δ protein (P54290 25-944 limits assumed): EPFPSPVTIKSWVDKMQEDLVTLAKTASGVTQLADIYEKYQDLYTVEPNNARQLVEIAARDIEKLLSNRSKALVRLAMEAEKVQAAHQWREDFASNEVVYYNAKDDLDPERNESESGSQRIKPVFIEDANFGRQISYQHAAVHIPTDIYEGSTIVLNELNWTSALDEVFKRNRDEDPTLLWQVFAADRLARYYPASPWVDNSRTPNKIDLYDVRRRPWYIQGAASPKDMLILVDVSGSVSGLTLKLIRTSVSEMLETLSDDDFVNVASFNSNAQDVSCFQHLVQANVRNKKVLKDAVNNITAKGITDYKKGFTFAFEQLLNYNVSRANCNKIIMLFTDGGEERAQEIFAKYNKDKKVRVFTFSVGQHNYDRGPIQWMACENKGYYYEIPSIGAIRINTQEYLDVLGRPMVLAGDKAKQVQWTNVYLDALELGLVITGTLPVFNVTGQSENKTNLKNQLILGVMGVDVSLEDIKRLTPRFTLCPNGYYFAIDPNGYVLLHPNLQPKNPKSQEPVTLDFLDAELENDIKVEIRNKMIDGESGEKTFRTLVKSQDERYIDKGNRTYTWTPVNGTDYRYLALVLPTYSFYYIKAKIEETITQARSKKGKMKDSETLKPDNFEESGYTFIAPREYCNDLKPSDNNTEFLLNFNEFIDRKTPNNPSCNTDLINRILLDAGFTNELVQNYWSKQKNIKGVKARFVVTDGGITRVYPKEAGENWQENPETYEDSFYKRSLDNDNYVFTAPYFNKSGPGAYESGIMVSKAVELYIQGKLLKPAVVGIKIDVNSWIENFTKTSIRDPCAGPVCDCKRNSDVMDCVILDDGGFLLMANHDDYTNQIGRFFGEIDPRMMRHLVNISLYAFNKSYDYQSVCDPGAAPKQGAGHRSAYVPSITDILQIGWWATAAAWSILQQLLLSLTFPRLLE
Sequence of α2δ protein (P54290 945-1091 limits assumed): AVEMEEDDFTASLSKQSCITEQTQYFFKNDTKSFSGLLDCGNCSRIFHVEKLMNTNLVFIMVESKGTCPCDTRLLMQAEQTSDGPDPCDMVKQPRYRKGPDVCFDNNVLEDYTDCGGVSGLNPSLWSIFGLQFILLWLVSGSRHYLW
Description: Experiment was conducted according to the methods described in European Journal of Pharmacology, 1993, 244, p. 293-301, using the report of Woodruff G N et al. as a reference (Journal of Biological Chemistry, 1996, 271, p. 5768-5776).
(1) Preparation of Membrane Fraction from Rat Cerebral Cortex
A male SD rat was purchased at the age of 6 weeks, and kept for at least 7 days prior to experiment. The cerebral cortex was removed, and gently washed with Tris-sucrose buffer A (containing 0.32 mol/L sucrose, 5 mmol/L tris-acetate, 1 mmol/L ethylenediaminetetraacetic acid (EDTA), 1 mmol/L ethylene glycol tetraacetic acid (EGTA), and a protease inhibitor cocktail tablet, pH 7.4). The cerebral cortex was placed in Tris-sucrose buffer A, and homogenized in 15 strokes (250 rpm) using a teflon homogenizer to obtain a crude extract. The crude extract was centrifuged at 4° C. for 10 minutes at 2,000 rpm, and the supernatant was collected. After adding Tris-sucrose buffer A to the resulting precipitate, the same homogenization and centrifugation procedures as above were performed, and the resulting supernatant was mixed with the previously obtained supernatant to obtain a total collected supernatant. The total collected supernatant was centrifuged at 4° C. for 30 minutes at 20,000 rpm, and the supernatant (cytosolic fraction) was removed. Tris-acetate buffer A (containing 5 mmol/L tris-acetate, 1 mmol/L EDTA, 1 mmol/L EGTA, and a protease inhibitor cocktail tablet, pH 8.0) was added to the remaining precipitate (cell membrane fraction), and the mixture was stirred for 1 hour. The stirred extract was centrifuged at 4° C. for 30 minutes at 26,500 rpm, and Tris-sucrose buffer B (containing 1.2 mol/L sucrose, 5 mmol/L tris-acetate, pH 7.4) was added to the resulting precipitate. The mixture was dispensed in centrifuge tubes in 15-mL portions, and 9 mL of Tris-sucrose buffer C (containing 0.9 mol/L sucrose, 5 mmol/L tris-acetate, pH 7.4) was gently layered on the mixture in each centrifuge tube without disrupting the interface. The centrifuge tubes were centrifuged at 4° C. for 90 minutes at 43,000 rpm, and the membrane fraction at the interface of the Tris-sucrose buffer B and the Tris-sucrose buffer C was collected with a Pasteur pipette. After adding Tris-acetate buffer B (5 mmol/L tris-acetate, pH 7.4) to the collected membrane fraction, the mixture was centrifuged at 4° C. for 20 minutes at 26,500 rpm. The resulting precipitate was resuspended in Tris-acetate buffer B to obtain a cerebral cortex membrane fraction, and the cerebral cortex membrane fraction was stored at −80° C. until use in the binding experiment. For the binding experiment, the stored suspension was centrifuged at 4° C. for 30 minutes at 32,000 rpm, and Binding buffer [a 0.1 w/v % bovine serum albumin (BSA)-containing 10 mmol/L 4-(2-hydroxyethyl)-1-piperazineethanesulfonic acid (HEPES) solution adjusted to pH 7.4 with sodium hydroxide] for the binding experiment was added to the obtained precipitate, and resuspended with a syringe equipped with an injection needle to adjust to the desired concentration.
(2) [^3H]-Gabapentin Binding Inhibition Experiment
A test compound (20 μL) diluted to 5 times of the final concentration with Binding buffer, [^3H]-gabapentin diluted to 100 nmol/L with binding buffer [20 μL (final concentration 20 nmol/L)], and the rat cerebral cortex membrane fraction (60 μL; 12 μg membrane fraction) obtained in the (1) above were added to each well of a 96-well round-bottom plate. After being sufficiently mixed, these were allowed to react at room temperature for 1 hour. After the reaction, the reaction sample was suction filtered using a filter plate with 50 μL/well of 0.3 vol % polyethyleneimine added, and a cell harvester. The filter was then washed with ice-cooled Wash buffer (100 mmol/L NaCl, 0.1 w/v % BSA). […]

Row | SMILES | inhibition at 0.1 µM [%]
6 | CCNc1ncc2c(n1)N1CCC[C@H]1CN(c1csc3c(=O)n(C)ccc13)C2=O [Compound 90, (S)-3-(2-Ethylamino-5-oxo-7a,8,9,10-tetrahydro-5H-pyrimido[5,4-f]pyrrolo[1,2-a][1,4]diazepin-6(7H)-yl)-6-methylthieno[2,3-c]pyridin-7(6H)-one] | ≥ 50
7 | Cn1cnc2cccc(N3C[C@@H]4CCCN4c4nc(N)ncc4C3=O)c2c1=O [Compound 85, (S)-2-Amino-6-(3-methyl-4-oxo-3,4-dihydroquinazolin-5-yl)-6,7,7a,8,9,10-hexahydro-5H-pyrimido[5,4-f]pyrrolo[1,2-a][1,4]diazepin-5-one] | ≥ 50
8 | CCNc1ncc2c(n1)N1C[C@H](F)C[C@H]1CN(c1cccc3c(=O)n(C)cnc13)C2=O [Compound 115, (7aS,9R)-2-Ethylamino-9-fluoro-6-(3-methyl-4-oxo-3,4-dihydroquinazolin-8-yl)-6,7,7a,8,9,10-hexahydro-5H-pyrimido[5,4-f]pyrrolo[1,2-a][1,4]diazepin-5-one] | ≥ 50
9 | CCNc1ncc2c(n1)N1CCC[C@H]1CN(c1cn(C)c3c(=O)n(C)ccc13)C2=O [Compound 93, (S)-6-(1,6-Dimethyl-7-oxo-6,7-dihydro-1H-pyrrolo[2,3-c]pyridin-3-yl)-2-ethylamino-6,7,7a,8,9,10-hexahydro-5H-pyrimido[5,4-f]pyrrolo[1,2-a][1,4]diazepin-5-one] | ≥ 50
10 | CCNc1ncc2c(n1)N1CCC[C@H]1CN(c1cccc3c1CCC(=O)N3C)C2=O [Compound 83, (S)-2-Ethylamino-6-(1-methyl-2-oxo-1,2,3,4-tetrahydroquinolin-5-yl)-6,7,7a,8,9,10-hexahydro-5H-pyrimido[5,4-f]pyrrolo[1,2-a][1,4]diazepin-5-one] | ≥ 50
11 | CNc1ncc2c(n1)N1CCC[C@H]1CN(c1csc3c(=O)n(C)ccc13)C2=O [Compound 91, (S)-6-Methyl-3-(2-methylamino-5-oxo-7a,8,9,10-tetrahydro-5H-pyrimido[5,4-f]pyrrolo[1,2-a][1,4]diazepin-6(7H)-yl)thieno[2,3-c]pyridin-7(6H)-one] | ≥ 50
12 | CCNc1ncc2c(n1)N1C[C@H](O)C[C@H]1CN(c1cccc3c(=O)n(C)cnc13)C2=O [Compound 118, (7aS,9R)-2-Ethylamino-9-hydroxy-6-(3-methyl-4-oxo-3,4-dihydroquinazolin-8-yl)-6,7,7a,8,9,10-hexahydro-5H-pyrimido[5,4-f]pyrrolo[1,2-a][1,4]diazepin-5-one] | ≥ 50
13 | CCNc1ncc2c(n1)N1C[C@@H](OC)C[C@H]1CN(c1cccc3c(=O)n(C)cnc13)C2=O [Compound 117, (7aS,9S)-2-Ethylamino-9-methoxy-6-(3-methyl-4-oxo-3,4-dihydroquinazolin-8-yl)-6,7,7a,8,9,10-hexahydro-5H-pyrimido[5,4-f]pyrrolo[1,2-a][1,4]diazepin-5-one] | ≥ 50
